Measured values reported in US5464617A, “β-lactam compounds” (Hoffmann-La Roche Inc., priority 1994, dated 1995).
In brackets after ≈: the same amount, converted by molar mass. Where a name gives a salt, the structure may show the parent alone.

Tests used:
[1] = test system: Citrobacter freundii 1982; test: MIC in vitro of a 1:4 combination of ceftriaxone with a compound of formula I (Test D); format: cell-based; conditions: 1:4 combination of ceftriaxone with the compound; for MIC C. freundii 1982 (D): Table 4, test D; for MIC C. freundii 1982: Table 2
Procedure: The minimum inhibitory concentration in vitro ([…]) of a 1:4 combination of ceftriaxone with a compound of formula I against Citrobacter freundii 1982 was measured and compiled in Table 2 hereinafter.

E. coli 1346 = test: Antibacterial activity of the products per se, serial dilution method in liquid medium (Test E); format: cell-based; conditions: product per se; for MIC E. coli 1346 (E): Table 4, test E; for MIC E. coli 1346: Table 3, liquid medium
Excerpt: The antibacterial activity of the products per se is illustrated on the basis of Table 3 hereinafter, the minimum inhibitory concentration […] in vitro against E. coli 1346 being determined using the serial dilution method in liquid medium: […]

Row | SMILES | MIC C. freundii 1982 (D) [1] | MIC E. coli 1346 (E) (E. coli 1346) | MIC C. freundii 1982 [1] | MIC E. coli 1346 (E. coli 1346)
1 | CNC(=O)OCC1=C(C(=O)O)N2C(=O)[C@H]3NC[C@@H](C1)[C@H]32 [Example 97, (1aS,3aR,6bR)-5-Methylcarbamoyloxymethyl-1-oxo-1a,2,3,3a,4,6b-hexahydro-1H-2,6a-diazacyclobut[cd]indene-6-carboxylic acid trifluoroacetate] | 1 µg/mL | 4 µg/mL | – | –
2 | CNC(=O)Cn1nnnc1SCC1=C(C(=O)O)N2C(=O)[C@H]3NC[C@@H](O1)[C@H]32 [Example 29(k), (1aS,3aR,6bS)-5-(1-Methylcarbamoylmethyl-1H-tetrazol-5-ylsulphanylmethyl)-1-oxo-1,1a,2,3,3a,6 b-hexahydro-4-oxa-2,6a-diazacyclobut[cd]indene-6-carboxylic acid] | 8 µg/mL | 32 µg/mL (≈ 83.9 µM) | – | –
3 | CC(=O)N1C[C@H]2CC(CSc3cc[n+](CC(=O)[O-])cc3)=C(C(=O)O)N3C(=O)[C@@H]1[C@@H]23 [52(a), (1aS,3aR,6bR)-[4-(2-Acetyl-6-carboxy-1-oxo-1a,2,3,3a,4,6b-hexahydro-1H-2,6a-diaza-cyclobut[cd]inden-5-yl-methylsulphanyl)-pyridinio]-acetate bromoacetate (1:3.18) sodium salt (1:4.18)] | 4 µg/mL | 8 µg/mL | – | –
4 | CC(=O)OCC1=C(C(=O)O)N2C(=O)[C@@H]3[C@H]2[C@H](C1)CN3C(=O)C(F)(F)F [25(d), (1aS,3aR,6bR)-5-Acetoxymethyl-2-trifluoroacetyl-1-oxo-1a,2,3,3a,4,6b-hexahydro-1H-2,6a-diazacyclobut[cd]indene-6-carboxylic acid sodium salt] | 0.5 µg/mL | 4 µg/mL | – | –
5 | O=C(Cn1nnnc1SCC1=C(C(=O)O)N2C(=O)[C@H]3NC[C@@H](C1)[C@H]32)Nc1ccc(O)cc1 [Example 77, (1aS,3aR,6bR)-5-[1-(4-Hydroxy-phenylcarbamoylmethyl)-1H-tetrazol-5-ylsulphanylmethyl]-1-oxo-1a,2,3,3a,4,6b-hexahydro-1H-2,6a-diazacyclobut[cd]indene-6-carboxylic acid trifluoroacetate] | 2 µg/mL | 2 µg/mL | – | –
6 | Cn1nnnc1SCC1=C(C(=O)O)N2C(=O)[C@@H]3[C@H]2[C@@H](CN3C(=O)Nc2ccc(O)cc2)O1 [31(h), (1aS,3aR,6bS)-2-(4-hydroxy-phenylcarbamoyl)-5-(1-methyl-1H-tetrazol-5-ylsulphanylmethyl)-1-oxo-1,1a,2,3,3a,6b-hexahydro-4-oxa-2,6a-diazacyclobut[cd]indene-6-carboxylic acid sodium salt] | 0.5 µg/mL | 8 µg/mL | – | –
7 | O=C(O)C1=C(CSc2nc[nH]n2)C[C@@H]2CN(C(=O)C(F)(F)F)[C@@H]3C(=O)N1[C@H]23 [76(b), (1aS,3aR,6bR)-1-Oxo-5-(1H-1,2,4-triazol-3-ylsulphanylmethyl)-2-trifluoroacetyl-1a,2,3,3a,4,6b-hexahydro-1H-2,6a-diazacyclobut[cd]indene-6-carboxylic acid sodium salt] | 0.5 µg/mL | ≤ 0.25 µg/mL | – | –
8 | CS(=O)(=O)OC1=C(C(=O)O)N2C(=O)[C@@H]3[C@H]2[C@H](C1)CN3C(=O)Nc1ccc(O)cc1 [9(a), (1aS,3aR,6bR)-2-(4-Hydroxy-phenylcarbamoyl)-5-methylsulphonyloxy-1-oxo-1a,2,3,3a,4,6b-hexahydro-1H-2,6a-diazacyclobut[cd]indene-6-carboxylic acid sodium salt] | – | – | 0.12 µg/mL | 32 µg/mL
9 | CO/N=C(\C(=O)N1C[C@H]2CC(COC(N)=O)=C(C(=O)O)N3C(=O)[C@@H]1[C@@H]23)c1csc(N)n1 [Example 60, (Z)-(1aS,3aR,6bR)-2-[(2-Amino-thiazol-4-yl)-methoxyimino-acetyl]-5-carbamoyloxymethyl-1-oxo-1a,2,3,3a,4,6b-hexahydro-1H-2,6a-diazacyclobut[cd]indene-6-carboxylic acid] | 2 µg/mL | > 32 µg/mL | – | –
10 | O=C(O)CC1=C(C(=O)O)N2C(=O)[C@@H]3[C@H]2[C@H](C1)CN3C(=O)Nc1ccc(O)cc1 [13(a), (1aS,3aR,6bR)-5-carboxymethyl-2-(4-hydroxy-phenycarbamoyl)-1-oxo-1a,2,3,3a,4,6b-hexahydro-1H-2,6a-diazacyclobut[cd]indene-6-carboxylic acid sodium salt] | – | – | 1 µg/mL | 4 µg/mL
11 | O=C([O-])C[n+]1ccc(SCC2=C(C(=O)O)N3C(=O)[C@H]4NC[C@@H](C2)[C@H]43)cc1 [Example 50, (1aS,3aR,6bR)-[4-(6-Carboxy-1-oxo-1a,2,3,3a,4,6b-hexahydro-1H-2,6a-diazacyclobut[cd]indene-5-ylmethylsulphanyl)-pyridin-1-ylio]acetatetrifluoroacetate] | 2 µg/mL | 4 µg/mL (≈ 10.7 µM) | – | –
12 | CS(=O)(=O)OC1=C(C(=O)O)N2C(=O)[C@@H]3[C@H]2[C@H](C1)CN3C(=O)NC1CCSC1=O (mixture of isomers) [9(f), (1aS,3aR,6bR)-5-Methylsulphonyloxy-1-oxo-2-[(R) and [(S)-2-oxo-tetrahydro-thien-3-ylcarbamoyl]-1a,2,3,3a,4,6b-hexahydro-1H-2,6a-diazacyclobut[cd]indene-6-carboxylic acid sodium salt] | – | – | 0.12 µg/mL | 32 µg/mL
13 | O=C(O)C1=C(CSc2ccncc2)S[C@@H]2CN(C(=O)Nc3ccc(O)cc3)[C@@H]3C(=O)N1[C@@H]32 [41(b), (1aS,3aR,6bS)-2-(4-Hydroxy-phenylcarbamoyl)-1-oxo-5-(pyridin-4-ylsulphanylmethyl)-4-thia-1,1a,2,3,3a,6b-hexahydro-2,6a-diazacyclobut[cd]indene-6-carboxylic acid sodium salt] | 4 µg/mL | > 32 µg/mL | – | –
14 | Cc1nnc(SCC2=C(C(=O)O)N3C(=O)[C@@H]4[C@H]3[C@H](C2)CN4C(=O)Nc2ccc(O)cc2)s1 [Example 64, (1aS,3aR,6bR)-2-(4-Hydroxy-phenylcarbamoyl)-5-(5-methyl-1,3,4-thiadiazol-2-ylsulphanylmethyl)-1-oxo-1a,2,3,3a,4,6b-hexahydro-1H-2,6a-diazacyclobut[cd]indene-6-carboxylic acid sodium salt] | 0.5 µg/mL | > 32 µg/mL | – | –
15 | CNC(=O)OCC1=C(C(=O)O)N2C(=O)[C@@H]3[C@H]2[C@H](C1)CN3C(=O)C(F)(F)F [98(b), (1aS,3aR,6bR)-5-Methylcarbamoyloxymethyl-1-oxo-2-trifluoroacetyl-1a,2,3,3a,4,6b-hexahydro-1H-2,6a-diazacyclobut[cd]indene-6-carboxylic acid sodium salt] | 1 µg/mL | 2 µg/mL | – | –
16 | N#C/C=C/C1=C(C(=O)O)N2C(=O)[C@H]3NC[C@@H](C1)[C@H]32 [48(b), (E)-(1aS,3aR,6bR)-5-(2-Cyanovinyl)-1-oxo-1a,2,3,3a,4,6b-hexahydro-1H-2,6a-diazacyclobut[cd]indene-6-carboxylic acid trifluoroacetate] | 2 µg/mL | 4 µg/mL | – | –
17 | Nc1nnc(SCC2=C(C(=O)O)N3C(=O)[C@H]4NC[C@@H](O2)[C@H]43)s1 [Example 29(c), (1aS,3aR,6bS)-S-(S-Amino-1,3,4-thiadiazol-2-yl-sulphanylmethyl)-1-oxo-4-oxa-1,1a,2,3,3a,6b-hexahydro-2,6a-diazacyclobut[cd]indene-6-carboxylic acid sodium salt] | 0.5 µg/mL | 2 µg/mL | – | –
18 | NC(=O)Cn1nnnc1SCC1=C(C(=O)O)N2C(=O)[C@H]3NC[C@@H](O1)[C@H]32 [Example 29(j), (1aS,3aR,6bS)-5-(1-Carbamoylmethyl-1H-tetrazol-5-ylsulphanylmethyl)-1-oxo-1,1a,2,3,3a,6b-hexahydro-4-oxa-2,6a-diazacyclobut[cd]indene-6-carboxylic acid] | 4 µg/mL | 8 µg/mL (≈ 21.8 µM) | – | –
19 | NC(=O)OCC1=C(C(=O)O)N2C(=O)[C@@H]3[C@H]2[C@H](C1)CN3C(=O)NCc1ccc(S(N)(=O)=O)cc1 [27(e), (1aS,3aR,6bR)-5-Carbamoyloxymethyl-2-(4-sulphamoylbenzylcarbamoyl)-1-oxo-1a,2,3,3a,4,6b-hexahydro-1H-2,6a-diazacyclobut[cd]indene-6-carboxylic acid sodium salt] | 0.5 µg/mL | 32 µg/mL | – | –
20 | Cn1nnnc1SCC1=C(C(=O)O)N2C(=O)[C@H]3NC[C@@H](S1)[C@H]32 [Example 40(a), (1aS,3aR,6bS)-5-(1-Methyl-1H-tetrazol-5-ylsulphanylmethyl)-1-oxo-4-thia-1,1a,2,3,3a,6b-hexahydro-2,6a-diazacyclobut[cd]indene-6-carboxylic acid] | 0.5 µg/mL | 16 µg/mL (≈ 47 µM) | – | –
21 | Cc1nnc(SCC2=C(C(=O)O)N3C(=O)[C@@H]4[C@H]3[C@@H](CN4C(=O)CSc3nnnn3C)O2)s1 [Example 34, (1aS,3aR,6bS)-2-(1-Methyl-1H-tetrazol-5-ylsulphanylacetyl)-5-(5-methyl-1,3,4-thiadiazol-2-ylsulphanylmethyl)-1-oxo-1,1a,2,3,3a,6b-hexahydro-4-oxa-2,6a-diazacyclobut[cd]indene-6-carboxylic acid] | 1 µg/mL | 8 µg/mL (≈ 16.1 µM) | – | –
